Reference: US20070197562A1, “Remedies for prostatic hypertrophy” (Yokohama TLO Company, Ltd., priority 2004, published 2007)

Key:
PrSC cells [1] = assay: Proliferation of PrSC cells stimulated with angiotensin II, TGFβ or EGF (cell count, Examples 1-3); assay type: cell-based, human; conditions: 5 days
Procedure: A Cell Line Derived from Normal Human Prostatic stromal cells, i.e., PrSC cells, was purchased from Sanko Junyaku Co. Ltd. (Normal Human Prostate Stromal Cells, catalogue number CC-2508), and maintained by subculturing them in a phenol red-free RPMI medium under conditions of 5% CO2 and 37° C.
The PrSC cells (10^4 cells) were placed in a 12-well dish, and cultured in a phenol red-free medium containing 0.1% (W/V) BSA under conditions of 5% CO2 and 37° C. for several days. Then, 1 μM or 10 μM of angiotensin II was added. To some wells, CV (10 μM; hereinafter CV was used at this concentration unless otherwise noted) was added as an AIIR blocker 4 hours before adding angiotensin II. Each group contained four wells (n=4). After culturing the cells at 5% CO2 and 37° C. for 5 days, the number of all cells in each of the wells was counted.
The effect of an AIIR blocker was examined in the same manner as Example 1, except for that 10 ng/mL of TGFβ was used in place of angiotensin II.
The effect of an AIIR blocker was examined in the same manner as Example 1, except for that 10 ng/mL of EGF was used in place of angiotensin II.

PrSC cells [2] = assay: IL-6 secretion by PrSC cells (CLEIA); assay type: cell-based, human; conditions: 24 hours
Procedure: (§1) PrSC cells prepared in the same manner as Example 1, or F-1 or FT-FB cells prepared as described above were placed in a 6-well dish at 10^5 cells per well, cultured at 5% CO2 and 37° C. for 1 day (24 hours), and stimulated by the addition of TGFβ (1 ng/mL), TNFα (1 ng/mL), EGF (2.5 or 10 ng/mL), or angiotensin II (1 μM or 10 μM) (n=3). CV was added as the AIIR blocker to some wells 4 hours before adding the reagents. The culture media were collected 24 hours after adding the reagents, and the concentrations of IL-6 were determined by the CLEIA method.

F-1 cells = assay: IL-6 secretion by primary-cultured F-1 cells (CLEIA); assay type: cell-based, human; conditions: AII (10 μM)+CV 10 μM; 24 hours; P<0.03 vs AII (10 μM)
Procedure: The primary-cultured stromal cells (F-1 cells) derived from a patient with prostatic hypertrophy were prepared as described below.
Tissues obtained from the patient were placed in a 50 mL centrifuge tube containing 20 mL of a medium (RPMI 1640, GIBCO 11835-030) supplemented with 10% (V/V) FBS (filtron) and mg/mL penicillin/streptomycin (GIBCO 15140-122), and allowed to stand at 4° C. for 1 hour or longer. Subsequently, the tissues were placed in a 10-cm dish, and cut into pieces of about 1 mm square. Blood vessels and the like were removed. At that time, to remove excessive blood (if necessary), the tissues were washed by adding 20 mL of the medium and centrifuging the mixture for 5 minutes at 1,000 rpm, followed by aspiration of the supernatant. […]
as §1, with “CV was added as the AIIR blocker to some wells 4 hours before adding the reagents.” left out

PC-3 tumor grafts = assay: In vivo effect on PC-3 tumor grafts transplanted on mice; conditions: PC-3 cells transplanted; CV 5 or 10 mg/kg/day orally in drinking water, first to fifth week; male nude mice
Procedure: (§2) The in vivo effect of the AIIR blocker was examined using the PC-3 human prostatic cancer cells with less expression of AT1 receptors (obtained from American Type Culture Collection, Rockville, Md., USA), and PrSC cells. PC-3 cells (5×10^6 cells) or a mixture of PC-3 and PrSC cells (2.5×10^6 cells each; a total of 5×10^6 cells) were injected subcutaneously in the back of male nude mice of 4 weeks old for forming tumors. Tumors having a diameter of about 5 mm were formed after one week. The above-described mice were divided into three groups: CV (5 mg/kg/day) administered group, CV (10 mg/kg/day) administered group, and non-administered group (Control) (n=4 for each group). The administered groups were orally administered with a specified dose of CV dissolved in drinking water every day from the first to the fifth week after the tumorigenic injection. The size of the tumor (heterograft) on each mouse was measured every week, and the volume was calculated using the formula: major axis×minor axis×minor axis/2. The volume was expressed as relative ratio to the volume in the first week as being 1. The results are shown in FIGS. 8 (PC-3 cells were transplanted) and 9 (a mixture of PC-3 and PrSC cells was transplanted).

[3] = test system: mixed tumor grafts of PC-3 cells and PrSC cells; assay: In vivo effect on mixed tumor grafts of PC-3 cells and PrSC cells transplanted on mice
Procedure: as §2

[4] = test system: MAPK phosphorylation in PrSC cells; assay: MAPK phosphorylation in PrSC cells (Western blotting); assay type: cell-based, human
Procedure: Stromal cells (PrSC) were cultured for 24 hours in a phenol red-free F12 medium containing 0.1% (W/V) BSA, to which angiotensin II (10 μM) or TNFα (1 ng/mL) was added each alone or in combination with either CV (10 μM) or losartan (“Los”; 10 μM) by replacing the medium. The cells were collected 10 minutes after the addition, and the total cellular proteins were extracted in the same manner as described in Example 10. Similarly, the cells cultured with no additive and the cells added with either CV or Los alone were processed in parallel. 3,000,000 PrSC cells were used for each sample.
These samples were subjected to Western blotting in the same manner as described in Example 10.

CCOc1nc2cccc(C(=O)OC(C)OC(=O)OC3CCCCC3)c2n1Cc1ccc(-c2ccccc2-c2nnn[nH]2)cc1 (centres unmarked) [CV, 1-(cyclohexyloxycarbonyloxy)ethyl 2-ethoxy-1-[[2′-(1H-tetrazole-5-yl)biphenyl-4-yl]methyl]-1H-benzimidazole-7-carboxylate]
increase in the numbers of cells (PrSC cells [1]; AII (1 μM)+CV 10 μM added 4 hours before, P<0.01 vs AII (1 μM)): suppressed to a level similar to that of the control group | increase in the numbers of cells (PrSC cells [1]; AII (10 μM)+CV 10 μM added 4 hours before, P<0.01 vs AII (10 μM)): suppressed to a level similar to that of the control group | increase in the number of cells (PrSC cells [1]; EGF 10 ng/mL + CV 10 μM, P<0.05): significantly suppressed (P<0.05) to the same level as that of the control group | increase in the number of cells (PrSC cells [1]; TGFβ 10 ng/mL + CV 10 μM, P<0.05 vs TGFβ): significantly suppressed | IL-6 secretion (PrSC cells [2]; EGF (10 ng/mL)+CV (10 μM), P<0.05 vs EGF): significantly suppressed | IL-6 secretion (PrSC cells [2]; TGFβ (1 ng/mL)+CV 10 μM, P<0.04 vs TGFβ): significantly suppressed | IL-6 secretion (PrSC cells [2]; TNFα (1 ng/mL)+CV 10 μM, P<0.01 vs TNFα): significantly suppressed | IL-6 secretion (F-1 cells): significantly suppressed | proliferation (relative tumor volume) vs Control (PC-3 tumor grafts): suppression of proliferation was observed for the CV administered groups as compared to “Control”, but the effect was not so remarkable | proliferation (relative tumor volume) vs Control ([3]; mixture of PC-3 and PrSC cells transplanted, CV 5 or 10 mg/kg/day orally in drinking water, first to fifth week, male nude mice): dose-dependently suppressed | relative tumor volume, difference from Control ([3]; mixture of PC-3 and PrSC cells, CV 10 mg/kg/day, fourth and fifth weeks (P<0.04 and P<0.03)): significant differences | MAPK phosphorylation in PrSC cells ([4]; AIIR blocker 10 μM added alone, lanes 8 and 9): not caused | MAPK phosphorylation in PrSC cells ([4]; TNFα (1 ng/mL) in combination with AIIR blocker 10 μM, lanes 6 and 7, 10 minutes): suppressed | MAPK phosphorylation in PrSC cells ([4]; angiotensin II (10 μM) in combination with AIIR blocker 10 μM, lanes 3 and 4, 10 minutes): suppressed
